Series [1] has as its system primary mouse macrophages and macrophage-like cell lines. The following applies: cited from earlier work.
Series [2] concerns early stage breast cancer patients. The following applies: in vivo; cited from earlier work.
The test system of series [3] is C3H/HeJ mice (H-2^k); antibodies against the PGCC(95–104) epitope peptide. Conditions: mouse, in vivo.
Series [4] relates to C3H/HeJ(H-2^k) mice; splenic T cells. It counts as in vivo, mouse. Conditions: for IFN-γ/Th-1 responses to the HIV gp160(843–855) epitope (ELISPOT): C3H/HeJ mice, 40 nmole, boosts day 13 and 31, spleens day 35. As for the experimental part: An ELISPOT assay for IFN-γ cytokine responses was performed in order to titer more exactly splenic T lymphocyte subset responses to immunization with Ii-Key-ava-gp160(843–855) or gp160(843–855). The assay was performed as follows. A solution of the cytokine-specific capture antibody (100 μl at 6 μg/ml in phosphate-buffered saline solution, pH 7.2) was added to each well of a 96-well Immunospot plate (M200) for an overnight incubation at 4° C. After aspiration, phosphate-buffer saline solution 200 μl containing 10% fetal bovine serum and 1% penicillin-streptomycin-glutamine (mouse medium) was added to each well for 2 hr at RT. After washing four times with 1% Tween-20 in phosphate-buffered saline solution (wash buffer I), 100 μl of single cell suspensions from the spleens of immunized mice at 10^6 cells/well were re-stimulated with 100 μl of peptide-epitope at 5 μg/well in mouse medium and incubated for 20–40 hr at 37° C., 5% CO2. After washing twice with phosphate-buffered saline solution (wash buffer II) and four times with wash buffer 1,100 μl of 2 μg/ml biotinylated anti-mouse IFN-γ in 1× phosphate buffer saline with 10% fetal bovine serum (dilution buffer) was added to each well for 2 hr at RT. After washing five times with wash buffer 1,100 μl of streptavidin-horse radish peroxidase conjugate (1:500) in dilution buffer was added to each well for 1 hr at RT. After washing four times with wash buffer I and two times with wash buffer II, 100 μl of the 3-amino-9-ethylcarbazole/H2O2 substrate (Pharmingen 551951) was added and incubated for 30–60 min in the dark at RT. The reaction was stopped by washing three times with 200 μl of deionized water. ELISPOT data analysis was performed by using the Immunospot 1.7e software (Cellular Limited Technology). Digitized images of quadruplicate wells were analyzed for the presence of spots in which color density exceeds background based on comparison of control cells (naive splenocytes) and experimental cells (splenocytes of immunized mice) cells. Additional counting parameters for spot size and circularity were applied to gate out speckles caused by non-specific antibody binding. Each spot represents a single cell secreting IFN-γ.
C3H/HeJ(H-2^k) mice were immunized with 40 nmole of peptides (50 μl) emulsified with equal volume of incomplete Freund's adjuvant (IFA), subcutaneously at the base of the tail. On day 13 the mice were boosted subcutaneously at the base of the tail with 40 nmole of peptides (50 μl) emulsified with equal amount of incomplete Freund's adjuvant (IFA). On day 31, the mice were boosted intravenously with 40 nmole peptides dissolved in 100 μl Hank's balanced salts solution (HBSS). […]

Series [5] has as its system B10.A (5R) mice; antibodies against the HIV gp160(843–855) peptide. It counts as in vivo, mouse. The following applies: peptides in saline solution; for Antibody induction (ELISA), Dilution^−1 20: serum day 35, against HIV gp160(843–855) peptide, serum dilution^−1 20; for Antibody induction (ELISA), Dilution^−1 60: serum day 35, serum dilution^−1 60; for Antibody induction (ELISA), Dilution^−1 180: serum day 35, serum dilution^−1 180; for Antibody induction (ELISA), Dilution^−1 540: serum day 35, serum dilution^−1 540. The method, then:
An ELISA assay for antibody responses following immunization with the experimental peptides indicated above was performed as follows. Fifty microliters (μl) of a solution of the coating peptide at 2 μg/well in 0.1 M carbonate buffer, pH 9.5 was added to each well of a 96-well Nunc-immunoplate (#442404) for an overnight incubation at 4° C. After aspiration, 250 μl of phosphate-buffer saline solution containing 3% fetal bovine serum (assay diluent) was added to each well for 2 hr at RT. After washing three times with assay diluent, 50 μl of 20-times diluted mouse serum in 1:3 serial dilution in assay diluent was added to each well for 2 hr at RT. After washing three times with assay diluent, 50 μl of 1 μg/ml biotinylated goat anti-mouse IgG1 or IgG2a was added to each well and incubated for 1 hr at RT. After washing three times with assay diluent, 50 μl of streptavidin-horse radish peroxidase conjugate (1:1000) was added to each well and incubated for 30 min at RT. After washing three times with assay diluent, 100 μl of tetramethylbenzidine/H2O2 solution (Pharmingen 264 KK) was added to each well for 15 min in the dark at room temperature. The reaction was stopped with 100 μl 1N H2SO4 in each well and the absorbance was read immediately at 450 nm.
B10.A (5R) mice (H-2) were immunized with 20 nmole of peptides in 50 μl phosphate-buffered saline solution, intramuscularly in right and left rear legs on days 1 and 2, respectively. On day 14 the mice were boosted intramuscularly with 40 nmole of peptides in 200 μl Hank's balanced salts solution intramuscularly in a rear leg. On day 30 the mice were boosted intravenously with 40 nmole peptides dissolved in Hank's balanced salts solution (HBSS). On day 35 the mice were sacrificed and serum samples were assayed for antibody titers against the HIV gp160(843–855) peptide.
In general terms: In an ELISA, binding on a coated surface is turned into a signal by an enzyme label.

Series [6] deals with tumor cells expressing HLA-A24 and CEA. The following applies: cited from earlier work.
Series [7] deals with lymphocytes from HLA-B7+ normal blood donors. Conditions: cited from earlier work.
The subject of series [8] is mice in an ovalbumin-induced asthmatic response. The following applies: mouse, in vivo; cited from earlier work.
In series [9] the test system is HLA alleles of the A2 supertype (A2.2, A2.3, A2.6 and A6802). Conditions: cited from earlier work.
In series [10] the test system is MBP-specific autoantibodies in the CSF. Conditions: human, in vivo; cited from earlier work.
For series [11], the system named is patients with resected melanoma. The following applies: human, in vivo; cited from earlier work.
Series [12] relates to B10(A) 5R mice; splenic CD3+/CD4+ T-helper cells. It counts as in vivo, mouse. The following applies: splenic cells day 26, double color FACS. An excerpt: To test the mechanism for the much greater immunogenecity of Ii-Key/epitope hybrids epitope peptides, B10(A) 5R mice were immunized with 10 nmole of either gp160(843–855) peptide or Ii-Key/gp160(843–855) in CFA subcutaneously at the right side of the base of the tail. On day 10 the mice were boosted with 40 nmole of hybrid peptide or epitope peptide in saline by intravenous injection. On day 26 mice were sacrificed and splenic cells were obtained. 1×10^6 splenic mononuclear cells were stimulated overnight in the presence of 10 units of recombinant IL-2 and indicated peptides (10 μg/ml). During the last 3 hours of incubation, 2 μM monensin (Golgi-stop, Pharmingen) was added to the cultures, and cells were then stained for both cellular surface markers and intracellular IFN-γ. The FACS assay to quantify antigen specific Th1 helper cell responses was performed as follows. The cells were incubated with 1 μg […] (FC/block, Pharmingen) per 10^6 cells in 100 μl of staining buffer (Dulbecco's phosphate-buffered saline solution without magnesium or calcium). Those cells were stained at 10^6 cells/100 μl with either rat-anti-mouse CD3 or CD4 monoclonal antibodies for 30 min at 4° C. After washing, the cells were re-suspended, fixed with 4% formaldehyde, and permeablized with 0.5% saponin for 20 min at 4° C. The cells were suspended in staining buffer with 0.5% saponin, and stained with the appropriate anti-cytokine or isotype control antibody (IFN-γ, XMG1.2, Pharmingen or IFN-γ isotype control, R3–34, Pharmingen). The cells were incubated for 30 min at 4° C. in the dark, washed and fixed for 10 min with 0.3% formaldehyde in 0.5% saponins in staining buffer for flow cytometric analysis. Flow cytometric analysis was performed as follows. First, CD3^+ cells were gated using dual color dot plot of side scatter versus CD3 FITC as the T-gate population. The CD3^+ cells were then analyzed for CD4 expression to target the CD3^+/CD4^+ T-helper cell population. […]

[13] abbreviates: IFN-γ ELISPOT, C3H/HeJ(H-2^k) mice, spleens day 35, re-stimulated with HIV gp160(843–855) peptide.

Where a SMILES comes first, the peptide text is derived from it. [ ]: non-standard residue; d: D form. The star is where a group is joined. Cbz = O=C(OCc1ccccc1)*; ava = not defined here

Regarding `CC(C)C[C@@H](C=O)NC(=O)[C@H](CC(C)C)NC(=O)[C@H](CC(C)C)NC(=O)OCc1ccccc1` [MG132] (Cbz-Leu-Leu-Leu-aldehyde), in series [1], the LeTx cytotoxicity result is listed as “efficiently block”.
In the case of `CC(=O)N[C@@H](CSC(=O)[C@]1([C@@H](O)C(C)C)NC(=O)[C@H](C)[C@@H]1O)C(=O)O` [lactacystin], the LeTx cytotoxicity entry in series [1] is recorded as “efficiently block”.
Take `CC/C(=C(\c1ccccc1)c1ccc(OCCN(C)C)cc1)c1ccccc1` [tamoxifen]: in [2], the overall survival entry is given as “benefited overall survival” and the survival result is “did not improve survival”.
Take “Ac-IAYLKQATAK-NH2 [PGCC, reference compound]”: in [3], the “Antibody induction (ELISA), Dilution^−1 1620” value is −0.003 and the “Antibody induction (ELISA), Dilution^−1 4860” value was 0.003.
As for Ac-LRMK-AYRAIRHIPR-NH2 [gp160(843–855)], the “IFN-γ/Th-1 responses to the HIV gp160(843–855) epitope (ELISPOT)” value in series [4] is “IFN-γ/Th-1 responses were elicited”.
With “Ac-LRMK-ava-YRAIRHIPR-NH2 [Ii-Key/one-ava/gp160(844–855)]”, in series [4], the “IFN-γ/Th-1 responses to the HIV gp160(843–855) epitope (ELISPOT)” value is recorded as “IFN-γ/Th-1 responses were elicited”.
For the molecule Gp160 (843–855) (LRMKAYRAIRHIPR), in [5], the “Antibody induction (ELISA), Dilution^−1 20” value stood at 0.052; the “Antibody induction (ELISA), Dilution^−1 60” value came out at 0.023; the “Antibody induction (ELISA), Dilution^−1 180” value worked out at 0.000; the “Antibody induction (ELISA), Dilution^−1 540” value was −0.005.
For the molecule HLFYSWYK [9.5.6], the “elicitation of CTL lines lysing tumor cells expressing HLA-A24 and CEA” value in series [6] was “elicited CTL lines that lysed tumor cells”.
Turning to IPQQHTQVL [CEA9(632)], the “primary CTL responses” value in series [7] is “induced primary CTL responses”.
ISQAVHAAHAEINAAGR [336E-A]: the “airway eosinophilia and OVA-specific IL-4 and IL-5 production” value in series [8] was “significant decrease”.
With “Ii-Key/one-ava/gp160 (843–855) (Ac-LRMK[ava]AYRAIRHIPR-NH2; reading uncertain)”, in series [5], the “Antibody induction (ELISA), Dilution^−1 20” value is 0.600; the “Antibody induction (ELISA), Dilution^−1 60” value is listed as 0.157; the “Antibody induction (ELISA), Dilution^−1 180” value is 0.073; the “Antibody induction (ELISA), Dilution^−1 540” value worked out at 0.024.
“Ii-Key/two-ava/gp160 (843–855) (Ac-LRMK[ava][ava]AYRAIRHIPR-NH2; reading uncertain)”: in series [5], the “Antibody induction (ELISA), Dilution^−1 20” value amounted to 0.131; the “Antibody induction (ELISA), Dilution^−1 60” value worked out at 0.039; the “Antibody induction (ELISA), Dilution^−1 180” value worked out at 0.027; the “Antibody induction (ELISA), Dilution^−1 540” value is reported as 0.003.
For the molecule LMTFWNPPV [9.5.2], the “anti-tumor CTL responses” value in series [6] is listed as “induced vigorous anti-tumor CTL responses”. In addition, in series [9], the “binding to other common HLA alleles of the A2 supertype” value is reported as “bound tightly”.
Consider “P85VVHFFKNIVTP96 (PVVHFFKNIVTP; listed as Homo sapiens)”, for which, in series [10], the “neurological or systemic side effects” value is listed as “No neurological or systemic side effects were observed” and the “tolerance to MBP” value is recorded as “induced tolerance”.
As for QYSWFVNGTF [9.5.4], the “elicitation of CTL lines lysing tumor cells expressing HLA-A24 and CEA” value in series [6] is “elicited CTL lines that lysed tumor cells”.
Regarding YMDGTMSQV [tyrosinase(368–376)(370D)], in series [11], the “patients developing a positive skin test response” value was “none”.
Consider gp160 (843–855) (LRMKAYRAIRHIPR), for which, in [12], the “Percentage of cells CD3^+/IFN-γ^+” value worked out at 2.05%, the “Percentage of cells CD4^+” value stood at 31.03% and the “Percentage of cells CD4^+/IFN-γ^+” value is reported as 0.94%. Further, in [4] (setting [13]), the “Number (mean number of spots and standard deviation in triplicate wells)” value was 5 (+/−3.6); the “Size (mean spot size and standard deviation)” value is on record as 0.019 (+/−0.01) mm^2.

Source of the values: patent US7179645B2 (priority 2002, dated 2007).
